Among the data in ChEMBL document CHEMBL1148275, “Discovery of thiophene-2-carboxylic acids as potent inhibitors of HCV NS5B polymerase and HCV subgenomic RNA replication. Part 1: Sulfonamides” (Bioorg Med Chem Lett, 2004) are IC50 and CC50 values, retold here.

Where only a bound is given, the exact number is not on record here.

The target in one assay is Genome polyprotein (Hepatitis C virus genotype 1a (isolate 1) (HCV), UniProt P26664). Nature of the assay: Inhibition of HCV NS5B polymerase.
Chain of Genome polyprotein (P26664 2421-3011 limits assumed): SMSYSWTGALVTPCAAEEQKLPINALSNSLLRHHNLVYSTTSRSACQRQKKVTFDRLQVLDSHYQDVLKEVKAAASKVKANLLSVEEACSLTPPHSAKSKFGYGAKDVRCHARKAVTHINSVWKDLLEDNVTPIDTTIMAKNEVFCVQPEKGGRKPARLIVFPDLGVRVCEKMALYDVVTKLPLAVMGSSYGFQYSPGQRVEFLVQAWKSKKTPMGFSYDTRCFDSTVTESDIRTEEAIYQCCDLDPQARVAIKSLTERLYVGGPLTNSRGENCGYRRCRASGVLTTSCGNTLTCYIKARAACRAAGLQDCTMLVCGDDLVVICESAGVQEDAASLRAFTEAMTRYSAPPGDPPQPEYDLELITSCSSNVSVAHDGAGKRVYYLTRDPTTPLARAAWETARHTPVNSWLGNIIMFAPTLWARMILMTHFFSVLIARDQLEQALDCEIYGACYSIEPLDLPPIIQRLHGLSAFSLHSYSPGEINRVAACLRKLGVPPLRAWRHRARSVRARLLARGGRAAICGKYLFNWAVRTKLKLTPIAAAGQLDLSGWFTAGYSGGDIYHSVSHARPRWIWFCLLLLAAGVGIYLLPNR
Assay [1] deals with Huh-7. Nature of the assay: Inhibitory concentration against Huh-7 human hepatoma cell line that supports replication of subgenomic HCV RNA replicons (replicon cell line). The assay is classed as functional, cell-based. A general note: In antiviral work, replicon cells carry a viral genome segment that copies itself.
Assay [2] concerns Huh-7. Nature of the assay: Concentration required to suppress [3H]thymidine uptake by 50% in Huh-7 cells. The assay is classed as functional. The conditions noted are these: Homo sapiens.

In general, IC50 refers to the point on the concentration scale where inhibition reaches its midpoint. A high value points to weaker potency. As a reminder, the CC50 is the concentration that lowers cell viability or growth by half. Low values mean harm at low concentration, high ones better tolerance by the cells. As to `CC(=O)c1ccc(-c2cc(NS(=O)(=O)c3ccccc3C)c(C(=O)O)s2)cc1`, the IC50 was 1.4 µM on Genome polyprotein and 12 µM in the assay on Huh-7 [1]. Moreover, in the assay with Huh-7 [2], the CC50 worked out at 147 µM.
The molecule `Cc1ccccc1C(=O)Nc1cc(-c2ccccc2)sc1C(=O)O` showed an IC50 at Genome polyprotein of 14 µM.
At Genome polyprotein, `O=C(O)C(Cc1ccccc1)N(Cc1cccc(C(F)(F)F)c1)C(=O)c1ccc(Cl)cc1Cl` (stereo not given) registered an IC50 of 1.8 µM.
Consider `Cc1cccc(S(=O)(=O)Nc2cc(-c3ccccc3)sc2C(=O)O)c1`, for which the IC50 against Genome polyprotein is 7.4 µM; in the assay on Huh-7 [1] it was 100 µM. In the assay with Huh-7 [2], it took 112 µM to reach half-maximal cytotoxicity (CC50).
The molecule `Cc1ccccc1S(=O)(=O)Nc1cc(C(=O)O)sc1-c1ccccc1` yielded an IC50 on Genome polyprotein above 50 µM.
Consider `Cc1cc(Cl)ccc1S(=O)(=O)Nc1cc(-c2ccccc2)sc1C(=O)O`, for which the IC50 turned out to be 0.75 µM on Genome polyprotein and 13 µM with Huh-7 [1]. In addition, it took 54 µM to reach half-maximal cytotoxicity in the assay with Huh-7 [2] (CC50).
In the same order, the values of `Cc1cc(S(=O)(=O)Nc2cc(-c3ccccc3)sc2C(=O)O)c(C)cc1Cl` are 5.4 µM, 14 µM and 80 µM.
In the case of `Cc1ccccc1S(=O)(=O)Nc1cc(-c2ccc(S(C)(=O)=O)cc2)sc1C(=O)O`, the IC50 was 1.8 µM against Genome polyprotein and above 100 µM in the assay with Huh-7 [1]. In addition, in the assay on Huh-7 [2], the CC50 was above 200 µM.
For the molecule `O=C(Nc1cc(-c2ccccc2)sc1C(=O)O)Oc1ccc(Cl)cc1`, at Genome polyprotein, the midpoint of inhibition, the IC50, lay at 13 µM.
On to `Cc1ccc(S(=O)(=O)Nc2cc(-c3ccccc3)sc2C(=O)O)cc1`, for which the figures for the IC50 on Genome polyprotein and in the assay on Huh-7 [1] were 4.6 µM and 33 µM, respectively. The CC50 in the assay with Huh-7 [2] came to 79 µM.
Taken in the same sequence, the figures for `Cc1ccc(C)c(S(=O)(=O)Nc2cc(-c3ccccc3)sc2C(=O)O)c1` were 13 µM, 11 µM and 24 µM.
Taken in the same sequence, the figures for `CC(=O)c1ccc(-c2cc(NS(=O)(=O)c3ccc(C)cc3C)c(C(=O)O)s2)cc1` were 0.39 µM, 8 µM and 100 µM.
In turn, `Cc1cc(S(=O)(=O)Nc2cc(-c3ccccc3)sc2C(N)=O)c(C)cc1Cl` gave an IC50 against Genome polyprotein of 14 µM.
`Cc1ccccc1S(=O)(=O)Nc1sc(-c2ccccc2)cc1C(=O)O`: half-maximal inhibition at Genome polyprotein (IC50) was put at 20 µM.
On to `O=C(O)c1sc(-c2ccccc2)cc1NS(=O)(=O)c1ccc(Cl)cc1`, for which the IC50 against Genome polyprotein is 4.1 µM; in the assay with Huh-7 [1] it was 77 µM. The molecule further displayed a CC50 with Huh-7 [2] of 92 µM.
In the case of `Cc1ccccc1S(=O)(=O)Nc1cc(-c2ccccc2)sc1C(=O)O`, the IC50 is 5.2 µM against Genome polyprotein and 24 µM with Huh-7 [1]. The CC50 in the assay with Huh-7 [2] was found to be 76 µM.
The molecule `Cc1ccc(C(=O)Nc2cc(-c3ccccc3)sc2C(=O)O)cc1` yielded an IC50 on Genome polyprotein of 12 µM.
Molecule `Cc1ccc(S(=O)(=O)Nc2cc(-c3ccccc3)sc2C(=O)O)c(C)c1` showed an IC50 at Genome polyprotein of 1 µM. The molecule also yielded a 50% cytotoxic concentration (CC50) in the assay with Huh-7 [2] of 57 µM.
`O=C(Nc1ccc(Cl)cc1)Nc1cc(-c2ccccc2)sc1C(=O)O` displayed an IC50 at Genome polyprotein above 50 µM.
